Source: US6528685B2 (Teva Pharmaceutical Industries, Ltd., priority 1994, dated 2003)

What was measured:
mice = test: Maximal electroshock (MES) model, mice; settings: Mus musculus, ip, read-out: MICE MES ED50
in vivo = settings: mouse, in vivo, ip
Experimental: (§1) Neurotoxicity of the claimed agents was also assessed in mice (i.p. administration) by the rotorod ataxia test and/or in rats (p.o. administration) by positional sense test and gait stance test. […] The term quantitating the neurotoxicity is the medial neurological toxic dose (TD50), was determined in the above tests.

[1] = Neurotoxicity in rats, positional sense test and gait stance test; settings: rat, in vivo, po
Experimental: as §1

rats [2] = test: Maximal electroshock (MES) model, rats; settings: Rattus norvegicus, po, read-out: RATS MES 50
MAO-A = target: T1, MAO-A (Rattus norvegicus, UniProt P21396); settings: chronic or acute treatment
T1 sequence (P21396 1-526): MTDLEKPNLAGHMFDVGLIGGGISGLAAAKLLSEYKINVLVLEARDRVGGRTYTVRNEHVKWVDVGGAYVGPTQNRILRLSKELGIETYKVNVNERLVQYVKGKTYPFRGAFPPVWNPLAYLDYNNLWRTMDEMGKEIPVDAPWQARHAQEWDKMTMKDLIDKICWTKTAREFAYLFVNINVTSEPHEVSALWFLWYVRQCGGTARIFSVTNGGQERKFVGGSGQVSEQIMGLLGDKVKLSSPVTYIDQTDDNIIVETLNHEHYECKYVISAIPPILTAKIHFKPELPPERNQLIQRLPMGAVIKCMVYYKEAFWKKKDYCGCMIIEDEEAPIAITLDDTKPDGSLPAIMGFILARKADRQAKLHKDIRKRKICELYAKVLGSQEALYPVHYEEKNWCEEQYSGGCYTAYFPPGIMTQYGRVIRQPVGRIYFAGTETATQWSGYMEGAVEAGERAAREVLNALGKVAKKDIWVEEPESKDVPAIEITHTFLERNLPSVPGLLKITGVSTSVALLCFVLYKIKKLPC
Text: (§2) The brains of some rats from each experimental group in Exp. 1 (chronic treatment of 80 days) and Exp. 2 (acute treatment of 14 days) were ex vivo analyzed for MAO-A and MAO-B activity.

MAO-B = target: T2, MAO-B (Rattus norvegicus, UniProt P19643); settings: RAI: only chronic treatment; deprenyl: acute or chronic treatment
T2 sequence (P19643 1-520): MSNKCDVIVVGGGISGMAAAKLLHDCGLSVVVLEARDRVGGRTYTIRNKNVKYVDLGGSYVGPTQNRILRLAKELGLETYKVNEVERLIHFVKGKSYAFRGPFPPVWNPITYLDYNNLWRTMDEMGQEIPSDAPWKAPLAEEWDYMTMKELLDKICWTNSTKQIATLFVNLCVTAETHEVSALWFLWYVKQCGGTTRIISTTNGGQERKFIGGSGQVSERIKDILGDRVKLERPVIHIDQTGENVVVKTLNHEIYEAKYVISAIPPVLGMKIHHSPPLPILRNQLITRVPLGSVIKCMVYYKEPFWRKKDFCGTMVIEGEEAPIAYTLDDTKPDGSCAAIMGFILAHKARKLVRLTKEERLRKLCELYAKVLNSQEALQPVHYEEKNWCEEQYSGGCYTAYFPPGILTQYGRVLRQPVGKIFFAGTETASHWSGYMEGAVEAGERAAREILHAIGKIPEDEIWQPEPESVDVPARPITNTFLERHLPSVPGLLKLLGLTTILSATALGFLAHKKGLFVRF
Text: as §2

hypoxia-lesioned rats = test: Water maze working memory test, Experiment 3B; assay type: in vivo, rat; settings: rat, in vivo
Text: The apparatus used consists of a circular water tank 160 cm in diameter filled with water to a depth of 38 cm. The water was made cloudy by the addition of milk powder. A clear Plexiglass 15 cm platform, supported by a movable stand rest on the bottom of the tank was submerged to a depth of 2 cm from the water surface. Normally a swimming rat cannot perceive the location of the platform but it may recall it from a previous experience and training, unless it suffers from some memory impairment. The time taken to locate the platform is measured in seconds and referred to as the latency. During the experiment all orientational cues such as ceiling lights etc. remained unchanged. Longer latencies are observed with rats with some impairment to their memory.
Each rat was given two trails a day for four days, entering the pool from the same point of entry each day. The position of the platform was changed daily to one of four predetermined positions. Each rat was tested twice each day over the four days, referred to as runs 1 and 2 on sessions I-IV. Initially the rat was placed on the platform for 60 seconds. It was then removed and placed at the point of entry and allowed a maximum of 120 seconds to locate the platform (run 1). The second run for that day followed 60 seconds later (run 2). In the second run the rat is expected to find the platform much sooner, having benefitted from its earlier experience. […] The average latency of run 1 in four sessions on four different days was then related to the corresponding parameter of run 2. The smaller the ratio of […], the better the short range learning score.
Table 8. […] The data are the latencies in seconds±SEM that it took a given group to locate a submerged and invisible platform the location of which was shifted from one session to the other. The time interval between sessions was one day, and that between successive runs was 60 seconds. (n=7-8 rats per group)

rats [3] = test: Closed head injury in rats, Experiment 4C (dose range); assay type: in vivo, rat; settings: doses 0.03 mg/kg to 3 mg/kg
Experimental: (§3) After the second evaluation of motor function, the animals were sacrificed and the brains were removed. A piece of tissue was weighed to yield a wet weight (WW), then dried in an oven for 24 hours at 95 C. and re-weighed to yield a dry weight(DW). Percentage water content in the tissue was calculated as (WW-DW)×100/WW.

rats [4] = test: Closed head injury in rats, Experiment 4D (times of administration); assay type: in vivo, rat; settings: RAI 1 mg/kg; times of administration: 0, 4, 8, 12 h
Experimental: as §3

hypoxic rat [5] = test: Amphetamine-induced stereotype behavior in hypoxic rat, Experiment 2A; assay type: in vivo; settings: hypoxic group, with respect to hypoxia and amphetamine control
Experimental: (§4) Wistar male rats, 15-19 month-old, were exposed to a single hypoxic episode as described above. […] Rats pretreated for 29 days with daily doses of the test drugs (0.5 mg/kg), received a sub-cutaneous (s.c.) injection of D-amphetamine sulfate at a dose of 0.5 mg/kg. D-amphetamine is known to cause an enhancement of the effects of CNS dopamine by a mechanism involving dopamine release, and blockage of its uptake and its metabolism by MAO. The behavioral manifestation of amphetamine action is a stereotypic pattern of lateral head movements. Counts of lateral head movements were taken over two successive intervals of 1 min each, 45-60 min after the injection of amphetamine and then averaged.

hypoxic rat [6] = test: Amphetamine-induced stereotype behavior in hypoxic rat, Experiment 2B; assay type: in vivo
Experimental: as §4
The procedure of the second Experiment 2B was similar to the one used in Experiment 2A with the following changes:
1) Animals: 12 month-old rats.
The drugs were given by i.p. injection.
3) Duration of the treatment: 14 days.

rats [7] = test: Closed head injury in rats, Experiment 4E (therapeutic window); assay type: in vivo, rat; settings: 1 mg/kg
Experimental: as §3

hypoxic rat [8] = test: α-MpT-induced hypokinesia in hypoxic rat, Experiment 1A; assay type: in vivo; settings: hypoxia group, ten hour observation
Experimental: Wistar male rats, 15-19 month-old, were exposed to a single hypoxic episode which is assumed to decrease the level of dopamine in the brain. […] The drugs were administered by gavage, using a special syringe equipped with rounded tip that could be directed into the stomach. The dose was contained in 0.3-0.5 mL of distilled water. The rats were pretreated for 70-80 days with daily doses of the test drugs and received intra-peritoneal (i.p.) α-MpT (α-methyl-p-tyrosine) at a dose of 100 mg/kg in 0.3-0.5 mL saline. Controls received saline. α-MpT is assumed to inhibit the formation of L-Dopa from tyrosine and, consequently the formation of dopamine itself. Lack of central dopamine is expressed as hypokinesia. Following the injection of α-MpT, motor activity was recorded for the duration of 10 hours. Locomotion scores were taken in seven fully-computerized cages (26×25 cm) having a grid of infra-red beams at 4 cm-intervals.
Crossing of a beam initiated an electric signal which was fed into a computer. The number of crossings over a given period provided a measure of locomotion.
The records gave two data categories: (a) “small movements” originating in stationary activities such as grooming and scratching and (b) “big movements” originating in ambulation and recorded as the simultaneous crossing of more than two beams. “Total movements” include both categories.
Counts of motor activity in the presence of α-MpT were related as percent with respect to counts in its absence in the corresponding control group (unlesioned or hypoxia-lesioned). Motor activity counts of drug-treated rats were related to the hypoxia saline-treated as 100%. All behavioral tests were performed 90-120 min. after administration of the last dose of the test compound.

hypoxic rat [9] = test: Passive avoidance test in hypoxic rat, Experiment 3A; assay type: in vivo; settings: hypoxic rats
Experimental: Wistar male rats, 15-19 month-old, were exposed to a single hypoxic episode as described above. […] The passive avoidance test was performed on day 13 after initiation the drug treatment. The apparatus consisted of a lit chamber that can be separated from a dark chamber by a sliding door. At training, a rat is placed in the lit chamber for 30 seconds, then the door is opened. The rat moves to the dark chamber after a short delay—the latency, that is recorded. Upon entry into the dark chamber, the door is shut closed and a 0.3-mA footshock is delivered for 3 seconds by a Grass S-88 stimulator. Retention of the experience is determined after 48 hours by repeating the test and recording the latency to an arbitrary maximum of 300 seconds. Longer latencies are ascribed to retention of memory and improved cognition.

SMILES	melting point [°C]	ED50 (mice) [mg/kg]	TD50 (in vivo) [mg/kg]	TD50 [1] [mg/kg]	ED50 (rats [2]) [mg/kg]	effect on MAO-A activity, in words (MAO-A)	effect on MAO-B activity, in words (MAO-B)	water maze performance versus hypoxia group, in words (hypoxia-lesioned rats)	dose at which a maximal response was observed (rats [3]) [mg/kg]	% water in the brain (rats [4]) [%]	potentiation of stereotypic behavior induced by amphetamine, in words (hypoxic rat [5])	potentiation of stereotypic behavior (lateral head movements), in words (hypoxic rat [6])	effectiveness when given after induction of head trauma, in words (rats [7])	effect on hypokinetic syndrome, big movements, in words (hypoxic rat [8])	passive avoidance performance, in words (hypoxic rat [9])
CC(=O)NC1CCc2ccc(F)cc21 (racemic) [Compound 22, (rac)-6-Fluoro-N-acetyl-1-aminoindan]	139 to 141	< 100	> 100	> 50	< 50	–	–	–	–	–	–	–	–	–	–
N[C@@H]1CCc2ccccc21 [R-AI, (R)-1-aminoindan]	–	–	–	–	–	does not have an effect on MAO-A activity	can partially inhibit	tended towards superior performance	0.3	81.5 ± 0.5	significant potentiation	significant potentiation	still effective even if given 3 hours after the induction of head trauma	corrected the hypokinetic syndrome	improved their performance to control level
